Experimental data as given in PubChem BioAssay AID504539 (Broad Institute, 2011).
“And” between values parts separate entries of the source, which are not always exact repeats. Identical values can stand only once.

Test system: Cell-based prion protein 5' UTR reporter, plate reader
Experiment: prion protein 5' UTR mRNA inhibitors – cell-based, plate reader, cherry-picked samples, dose response (AID 504539)

| SMILES | AC50 |
| --- | --- |
| CC(=O)OC1CC(OC2C(O)CC(OC3C(O)CC(OC4CCC5(C)C(CCC6C5CC(O)C5(C)C(C7=CC(=O)OC7)CCC65O)C4)OC3C)OC2C)OC(C)C1OC1OC(CO)C(O)C(O)C1O (configuration not stated) | 92 nM |
| CC1=CC2OC3CC4OC(=O)C=CC=CC(C(C)O)OCC(O)C(C)CC(=O)OCC2(CC1O)C4(C)C31CO1 (configuration not stated) | < 38 nM |
| Cc1nn(-c2ccccc2)c(C)c1/C=N/NC(=O)c1cc(-c2cccs2)[nH]n1 | 1070 nM |
| CN1CCN(c2ccc([N+](=O)[O-])c3no[n+]([O-])c23)CC1 | 2340 nM |
| CCN1/C(=C\C=C\C2=[N+](CC)c3ccccc3C2(C)C)C(C)(C)c2ccccc21 | 924 nM |
| COC(=O)CCC(=O)NC(=S)Nc1sc(C)c(C)c1C(N)=O | 636 nM |
| CCc1ccc(-c2cc(C(=O)Nn3cnnc3)c3ccccc3n2)cc1 | 510 nM |
| CC(C)CCCCCCCCCCCCC(=O)NCC(=O)NC1C(O)C(O)C(Nc2ncnc3nc[nH]c23)OC1C(O)CO (configuration not stated) | 87 nM |
| Cc1ccc(C(=O)CN2C(=O)c3ccccc3S2(=O)=O)cc1 | 823 nM |
| CCC(C)Cn1c(O)cc2nn(-c3nc4ccccc4s3)c(=O)c-2c1C (configuration not stated) | 62 nM |
| CCC1(OC(=O)CN)C(=O)OCc2c1cc1n(c2=O)Cc2cc3ccccc3nc2-1 (configuration not stated) | 987 nM |
| CC(=O)c1sc2c(c1OC(=O)c1ccc(Cl)cc1Cl)c(=O)n(-c1ccccc1)c(=S)n2-c1ccccc1 | 452 nM |
| Cc1nc(SCC(=O)Nc2nc3ccccc3s2)c(C#N)c(C)c1C | < 38 nM |
| COc1ccc(S(=O)(=O)N2c3cc(Cl)ccc3Oc3nc4ccccc4nc32)cc1 | 1350 nM |
| COC1C(O)C(C)OC(OC2CCC3(C=O)C(CCC4C3CCC3(C)C(C5=CC(=O)OC5)CCC43O)C2)C1O (configuration not stated) | < 38 nM |
| CCC(=O)Nc1cc2nn(-c3ccc(C)cc3)nc2cc1C | 465 nM |
| O=C(/C=C/Nc1ccccc1Br)c1ccccn1 | 281 nM |
| Cc1c(C(=O)N/N=C/c2ccc(Cl)cc2)[nH]c2ccc(Cl)cc12 | 1090 nM |
| CCCSc1ccc2nc(-c3ccccc3)cn2c1 | 487 nM |
| Cc1cc(NC(=O)CSc2nc(-c3ccco3)cc(C(F)(F)F)n2)no1 | 560 nM |
| Cc1cc2sc3ccc(C#CC4(O)CCCCC4)cc3c(=O)c2cc1C | < 38 nM |
| CC(=O)O[C@H]1C(=O)[C@@]2(C)[C@H]([C@H](OC(=O)c3ccccc3)[C@]3(O)C[C@H](OC(=O)[C@H](O)[C@@H](NC(=O)c4ccccc4)c4ccccc4)C(C)=C1C3(C)C)[C@]1(OC(C)=O)CO[C@@H]1C[C@@H]2O | 227 nM |

| SMILES | AC50 |
| --- | --- |
| CC(C)Oc1ccc(C(=O)Nc2nc3ccccc3[nH]2)cc1 | 304 nM |
| O=C1NC2C(=CC(O)C(O)C2O)c2cc3c(c(O)c21)OCO3 (configuration not stated) | 205 nM |
| Cc1nn(-c2nc3ccccc3[nH]2)c(=O)c2ccccc12 | 145 nM |
| Cc1cc(C(=O)COC(=O)C2=COCCO2)c(C)n1-c1ccccc1 | 1170 nM |
| COc1ccc(OC)c(-c2nnc3n2N=C(c2ccc(OC)c(OC)c2)CS3)c1 | 261 nM |
| Cc1ccc(-c2cc3c(nn2)-c2ccccc2C3=O)cc1 | 575 nM |
| COC(=O)Cc1[nH]n(-c2nc3ccccc3s2)c(=O)c1C(C)=Nc1ccc(OC)cc1 | 108 nM |
| O=C(Nc1nc2ccccc2[nH]1)c1ccccc1F | 210 nM |
| C[C@]12CC[C@H](O)C[C@H]1CC[C@@H]1[C@@H]2C[C@@H](O)[C@]2(C)[C@@H](C3=CC(=O)OC3)CC[C@]12O | 374 nM |
| C[C@]12CC[C@H](O)C[C@H]1CC[C@@H]1[C@@H]2CC[C@]2(C)[C@@H](C3=CC(=O)OC3)CC[C@]12O | 235 nM |
| NC(=S)NN=Cc1nccc2ccccc12 | 2800 nM |
| CCN(CC)c1ccc(/C=N/N=C(N)N)c(O)c1 | 1410 nM |
| O=C(NCCc1ccccc1)c1ccc2c(c1)OCCCO2 | 187 nM |
| COc1cc(-c2noc(C)c2/C=C/c2cccc([N+](=O)[O-])c2)cc(OC)c1OC | 2540 nM |
| C[C@H]1CCC/C=C/[C@@H]2C[C@H](O)C[C@H]2[C@H](O)/C=C/C(=O)O1 | 72 nM and 51 nM |
| Clc1ccccc1/C=C/c1nc(-c2ccccn2)no1 | 540 nM |
| CC1OC(OC2C=C3CCC4C(CCC5(C)C(c6ccc(=O)oc6)CCC45O)C3(C)CC2)C(O)C(OC2OC(CO)C(O)C(O)C2O)C1O (configuration not stated) | < 38 nM |
| C(=N\Nc1ccc2ccccc2n1)/c1ccc2c(c1)OCCO2 | 1220 nM |
| O=c1c2ccccc2cnn1CCOc1ccccc1 | 354 nM |
| COc1cc(OC)c2c(-c3cccc(-c4ccc(C(C)=O)cc4)c3)cc(=O)oc2c1 | 1580 nM |
| COC(=O)Cc1[nH]n(-c2nc3ccccc3s2)c(=O)c1C(C)=Nc1ccc(C)cc1 | 401 nM |
| COc1ccccc1-c1nnc2n1N=C(c1ccc(O)c(O)c1)CS2 | 206 nM |

| SMILES | AC50 |
| --- | --- |
| Cc1nc(SCC(=O)Nc2nccs2)c(C#N)c(C)c1C | 991 nM |
| CCCCCCN1C=CC(=C2C(=O)c3ccccc3C2=O)C=C1 | 369 nM |
| O=c1oc2ccccc2cc1-c1cn(-c2ccccc2)c(=S)[nH]1 | 776 nM |
| COc1ccc2c(c1)sc1nc(-c3ccccc3)cn12 | 556 nM |
| COc1ccc(CC2NCC(O)C2OC(C)=O)cc1 (configuration not stated) | 168 nM |
| C[C@H]1CCC/C=C/[C@@H]2C[C@H](O)C[C@H]2[C@@H](O)/C=C/C(=O)O1 | < 38 nM |
| Cc1ccc2oc(/N=C(\N)NC(=O)C(C)(C)C)nc2c1 | < 38 nM |
| COc1cc(/C=N/O)ccc1OCc1ccc(C(=O)O)cc1 | 226 nM |
| C=CCN=C1NN=C(c2ccc3c(c2)OCCO3)CS1 | 411 nM |
| Cc1ccc(Nc2nc(-c3c(C)nc4ncccn34)cs2)cc1 | 168 nM |
| CCc1ccn2cc(-c3cc(-c4ccccc4)no3)nc2c1 | 558 nM |
| Cc1cc(C)c(C#N)c(SCc2nnc(-c3ccccc3)o2)n1 | 1990 nM |
| CC1=C(N2CC2)C(=O)C(CO)=C(N2CC2)C1=O | 154 nM |
| Clc1ccc(-n2ncc3c(N4CCCCCC4)ncnc32)cc1 | 795 nM |
| COc1ccc(C(=O)c2cc([N+](=O)[O-])ccc2N2CCOCC2)cc1 | 397 nM |
| CCOC(=O)c1[nH]c2c(c1C)C(=O)CC(c1ccco1)C2 (configuration not stated) | 360 nM |
| COc1cccc2c1C(=O)c1c(O)c3c(c(O)c1C2=O)CC(O)(C(C)=NNC(=O)c1ccc(Cl)c(Cl)c1)CC3OC1CC(N)C(O)C(C)O1 (configuration not stated) | 1270 nM |
| CC(C)(C)c1ccc(C(=O)Nc2ccc(CC(=O)O)cc2)o1 | 312 nM |
| CC(=O)c1ccc(Oc2cc(C)nc(-n3nc(C)cc3C)n2)cc1 | 1250 nM |
| N#Cc1c(NC(=O)CSc2ncn[nH]2)sc2c1CCCCC2 | 82 nM |
| Cc1cc(C)c(S(=O)(=O)Nc2ccc3c4c(cccc24)CC3)c(C)c1 | 1900 nM |
| CN(CCO)c1ccc(/C=N/Nc2nncc3ccccc23)cc1 | 412 nM |

| SMILES | AC50 |
| --- | --- |
| COc1ccc(-c2nc(-c3ccccn3)no2)cc1 | 209 nM |
| COc1ccccc1N1CCN(C(=O)c2cc(=O)c3cc(C)cc(C)c3o2)CC1 | 248 nM |
| Cc1cc(C(=O)CN2C(=O)c3ccccc3S2(=O)=O)c(C)n1C(C)C | 2160 nM |
| N#Cc1c(NC(=O)CSc2ncn[nH]2)sc2c1CCCC2 | 303 nM |
| CCOC(=O)c1c(C)[nH]c(C(=O)N/N=C/c2ccc(Br)cc2)c1C | 378 nM |
| Cc1ccc(-c2cc3c(N=O)c4ccccc4c-3n[nH]2)cc1 | 438 nM |
| COC(=O)c1c(NC(=O)c2ccc([N+](=O)[O-])o2)sc2c1CCN(C(C)C)C2 | 2860 nM |
| COc1cc2c(c(OC)c1OC)-c1ccc(SC)c(=O)cc1C(NC(=O)c1ccccc1)CC2 (configuration not stated) | < 38 nM |
| COc1ccc(-c2cc3nc(C)n(N)c(=O)c3s2)cc1 | 113 nM |
| COc1ccc(OC)c(NS(=O)(=O)c2ccc(N3CCCC3=O)cc2)c1 | 880 nM |
| CC(=O)OC(C)(C)/C=C/C(=O)C(C)(O)C1[C@H](O)C[C@@]2(C)C3CC=C4C(CC[C@@H](O)C4(C)C)[C@]3(CO)C(=O)C[C@]12C (some centres not stated) | 85 nM |
| Cc1nn(-c2ccccc2)c2c1CC(=O)Nc1ccccc1-2 | 1960 nM |
| O=C(CN1C(=O)c2ccccc2S1(=O)=O)c1ccc(OC(F)F)cc1 | 657 nM |
| COc1cc2cc(C(=O)N3CC(COS(C)(=O)=O)c4ccc(O)cc43)[nH]c2c(OC)c1OC (configuration not stated) | < 38 nM |
| Nc1ncnc2c(C3OC(CO)C(O)C3O)scc12 (configuration not stated) | 2450 nM |
| CCN(CC)c1ccc(-c2nn3c(-c4n[nH]c5c4CCC5)nnc3s2)cc1 | 986 nM |
| COc1cc(SC)ccc1C(=O)Nc1ncc(C)s1 | 361 nM |
| COc1ccc(C(=O)Nc2ccc(C)cn2)c(OC)c1 | 280 nM |
| COc1ccc(C2=Nn3c(nnc3-c3ccccc3OC)SC2)cc1OC1CCCC1 | 2970 nM |
| O=C(CCCc1ccccc1)c1ccc2c(c1)OCCO2 | 344 nM |
| N/C(=N\OC(=O)c1ccc(Cl)cc1Cl)c1ccccn1 | 539 nM |
| N#CC1=C(N)Oc2c(ccc3ccccc23)C1c1ccsc1 (configuration not stated) | 831 nM |

| SMILES | AC50 |
| --- | --- |
| CCC(C)(O)C(=O)OC1C(=O)OC2CC3C(C)=CC(=O)C(O)C3(C)C3C4(O)OCC23C1C(C)C4O (configuration not stated) | 178 nM |
| O=C(CN1C(=O)c2ccccc2S1(=O)=O)c1ccc2c(c1)OCCO2 | 114 nM |
| CNc1c2cccc(C)c2nc2c(C(=O)NCCN(C)C)cccc12 | 307 nM |
| CCC1CN2CCc3cc(OC)c(OC)cc3C2CC1CC1NCCc2c1[nH]c1ccc(O)cc21 (configuration not stated) | 216 nM |
| COc1ccc(C(=O)Nc2nc3ccccc3s2)c(OC)c1 | < 38 nM |
| O=c1cc(-c2ccc(O)cc2)oc2ccc3ccccc3c12 | 629 nM |
| COc1cc2c(c(OC)c1OC)-c1ccc(O)c(=O)cc1C(NC(C)=O)CC2 (configuration not stated) | 160 nM |
| Nc1ncnc2c1ccn2[C@@H]1O[C@H](CO)[C@@H](O)[C@H]1O | 164 nM |
| Cc1cc(/C=N/Nc2ncnc(N)c2[N+](=O)[O-])c(C)n1-c1ccccc1 | 636 nM |
| Cc1ccc(C(=O)/C=C/Nc2ccccn2)cc1 | 233 nM |
| C=C1C(=O)O[C@@H]2C[C@@H](C)[C@@H]3C=CC(=O)[C@@]3(C)[C@@H](OC(=O)CC(=O)O[C@H]3[C@@H]4C(=C)C(=O)O[C@@H]4C[C@@H](C)[C@@H]4C=CC(=O)[C@]43C)[C@H]12 | 633 nM |
| CCCc1ccc(C(=O)O/N=C(\N)c2ccccn2)cc1 | 1080 nM |
| O=C(/C=C/c1ccccc1)Nc1cccc(C(=O)O)c1 | 392 nM |
| Cc1cc(C=C2C(=O)c3ccccc3C2=O)c(C)n1-c1ccccc1 | 809 nM |
| Cc1nn(-c2ccccc2Cl)c(Cl)c1/C=N/Nc1cccc(C(=O)O)c1 | 576 nM |
| COC(=O)C1=C(C(=O)OC)SC2(S1)C(C(=O)OC)=C(C(=O)OC)Sc1c2ssc1=O | 2620 nM |
| COc1cc(SC)ccc1C(=O)Nc1nc(C)cs1 | 216 nM |
| O=C(NCCc1ccccc1)c1ccc2c(c1)OCCO2 | 196 nM |
| COc1ccc(/C=C2\SC(=O)N(CCCC(=O)Nc3cc(Cl)ccc3C(=O)O)C2=O)cc1 | 242 nM |
